The values that follow come from PubChem BioAssay AID504903 (Southern Research Specialized Biocontainment Screening …, 2011).

SMILES strings stand for the structures. Active and inactive are the calls of the source. How the calls were made is not given here.

Test [1] concerns M. tuberculosis H37Rv growth in 7H9 medium. The experiment in a line: M. tuberculosis growth inhibition, dose response, H37Rv, 7H9 media, purified and synthesized compounds, set 5 (AID 504903). The following applies: for IC50: measured here: M. tuberculosis growth IC50.
Test in test [2]: as above
The following applies: M. tuberculosis H37Rv growth in 7H9 medium; at 100 µM (top of the series).

For `CC(C)CCNC(=O)CSc1nc2ccccc2c(=O)[nH]1`, in test [1], the 90% effect concentration (IC90) was 120 nM and the half-inhibitory concentration (IC50) is below 60 nM. Take `Cc1cccc(/C=C/C(=O)c2ccc([N+](=O)[O-])o2)c1`: in test [1], the 90% effect concentration (IC90) was 800 nM and the IC50 was found to be 310 nM. The corresponding values for `c1ccc(/N=C2\N=C(Nc3ccccn3)c3ccccc32)nc1` are 1330 nM and 750 nM. For `O=C(CSc1nc2ccccc2c(=O)[nH]1)NC1CCCC1` the same measures were 550 nM and 30 nM. As to `Cc1nc(SCC(N)=O)[nH]c(=O)c1C`, the growth inhibition in test [2] is 1.58% (inactive). Take `O=C(CSc1ccccn1)NC1CCCCC1`: the concentration for half-maximal inhibition (IC50) in test [1] was above 95800 nM. `Cc1cc(=O)[nH]c(SCC(=O)NC2CCCCC2)n1`: in test [2], the growth inhibition is 8.24% (inactive).

As for `COC(=O)C(C)Oc1ccc(Cc2ncc(C(F)(F)F)cc2Cl)cc1` (stereo not drawn), in test [1], the concentration for an effect of 90% (IC90) is 7660 nM and the concentration for half-maximal inhibition (IC50) is 3110 nM.

As for `Cc1nc(SCC(=O)NC2CCCC2)[nH]c(=O)c1C`, in test [1], the IC90 is 10500 nM and the IC50 was found to be 4490 nM. On to `COc1ccc(NC(=O)CSc2nc3ccccc3c(=O)[nH]2)cc1`, for which the growth inhibition in test [2] is 4.59% (inactive). For the compound `O=C(CSc1nccc(=O)[nH]1)NC1CCCCC1`, the growth inhibition in test [2] was -5.41% (inactive). With `Cc1ccc(C(=O)N/N=C(/CC(=O)c2cccs2)C(F)(F)F)cc1`, in test [1], the IC90 is 2940 nM and the IC50 was 1250 nM.

As for `Nc1c(C(=O)NC2CCCCC2)nsc1C(=O)OCC(=O)NC1CCCCC1`, in test [1], the IC90 is 42400 nM and the half-maximal inhibitory concentration (IC50) is 1970 nM.

As for `O=C(CSc1nc2c(c(=O)[nH]1)CCCC2)NC1CCCCC1`, in test [1], the IC90 was below 70 nM and the concentration for half-maximal inhibition (IC50) was below 30 nM. On to `O=c1[nH]c(SCc2ccccc2Cl)nc2c1CCCC2`, for which the growth inhibition in test [2] was -4.24% (inactive).

Turning to `CN[C@@H]1[C@H](O[C@H]2[C@H](O[C@H]3[C@H](O)[C@@H](O)[C@H](N=C(N)N)[C@@H](O)[C@@H]3N=C(N)N)O[C@@H](C)[C@]2(O)C=O)O[C@@H](CO)[C@H](O)[C@H]1O`, in test [1], the IC90 was 140 nM and the concentration for half-maximal inhibition (IC50) amounted to 70 nM. Take `COC(=O)c1ccc(CNc2c(N3CCCC3)c(=O)c2=O)cc1`: in test [2], the growth inhibition is 23.6% (inactive). As for `CCOC1OC(=O)C(Cl)=C1Nc1ccccc1C` (stereo not drawn), in test [1], the 90% effect concentration (IC90) is 5450 nM and the concentration for half-maximal inhibition (IC50) was 2900 nM. As to `CN(C)C(=O)CSc1nc2ccccc2c(=O)[nH]1`, the growth inhibition in test [2] was -2.5% (inactive). Consider `Cn1c(SCC(=O)NC2CCCCC2)nc2ccccc2c1=O`, for which the growth inhibition in test [2] was -10.1% (inactive). As for `CC1CCN(C(=O)C2CCN(c3nnc(-n4cccc4)s3)CC2)CC1`, in test [1], the IC90 was 4660 nM and the IC50 came to 2550 nM.

`CCSc1nc2ccccc2c(=O)[nH]1`: the growth inhibition in test [2] was -4.06% (inactive). On to `CCC(Sc1nc2ccccc2c(=O)[nH]1)C(=O)NC1CCCCC1` (stereo not drawn), for which, in test [2], the growth inhibition was -1.65% (inactive). Same read-out and setting: under `COC(=O)C(Nc1nc(SCC(=O)NC2CCCCC2)nc2ccccc12)c1ccccc1` (stereo not drawn) stands 0.4% (inactive). Consider `COc1c(N2CCNC(C)C2)c(F)cc2c(=O)c(C(=O)O)cn(C3CC3)c12` (stereo not drawn), for which, in test [1], the concentration for an effect of 90% (IC90) is 120 nM and the half-maximal inhibitory concentration (IC50) came to 90 nM. For `CC(C)NC(=O)CSc1nc2ccccc2c(=O)[nH]1` the same measures were 18800 nM and 4770 nM.

As for `CC(C)CCNC(=O)CSc1nc2c(c(=O)[nH]1)CCC2`, in test [1], the IC90 is 1030 nM and the concentration for half-maximal inhibition (IC50) was 600 nM.

On to `NC(=O)CSc1nc2ccccc2c(=O)[nH]1`, for which the growth inhibition in test [2] is 3.23% (inactive). As for `NNC(=O)c1ccncc1`, in test [1], the IC90 is 320 nM and the IC50 was 190 nM.

`CC(Sc1nc2ccccc2c(=O)[nH]1)C(=O)NC1CCCCC1` (stereo not drawn): in test [2], the growth inhibition is -8.54% (inactive).

Turning to `Cc1cc(Br)ccc1NC(=O)c1cnc(N2CCN(c3ccccn3)CC2)c2ccccc12`, in test [1], the IC90 was 6160 nM and the IC50 is 680 nM. In test [1], `CCCc1cc(C(N)=S)ccn1` returned an IC50 of 6010 nM. As to `Cc1nc(SCc2ccccc2Cl)[nH]c(=O)c1C`, in test [2], the growth inhibition is -6.23% (inactive). For `Cc1nc(SCC(=O)NC2CCCCC2)[nH]c(=O)c1C`, in test [1], the concentration for an effect of 90% (IC90) was 230 nM and the IC50 is below 10 nM. Turning to `O=c1[nH]c(=S)[nH]c2ccccc12`, in test [2], the growth inhibition is -4.57% (inactive).

In the case of `CCSc1nc(C)c(C)c(=O)[nH]1`, the growth inhibition in test [2] was -1.81% (inactive).

Turning to `COc1cccc(NC(=O)CSc2nc3c(c(=O)[nH]2)CCC3)c1`, the growth inhibition in test [2] was -9.73% (inactive). In the case of `Cc1ccc(NC(=O)COC(=O)CCc2c[nH]c3ccccc23)cc1[N+](=O)[O-]`, in test [1], the IC90 is 3590 nM and the half-maximal inhibitory concentration (IC50) was found to be 860 nM. As for `NC(=O)c1cnccn1`, the growth inhibition in test [2] was 0.23% (inactive). `O=C(CSc1nc2c(c(=O)[nH]1)CCC2)NC1CCCCC1`: in test [1], the 90% effect concentration (IC90) was below 70 nM and the concentration for half-maximal inhibition (IC50) is below 40 nM. On to `CN1CCC(NC(=O)CSc2nc3ccccc3c(=O)[nH]2)CC1`, for which the growth inhibition in test [2] was -7.75% (inactive). As to `CNC(=O)CSc1nc2ccccc2c(=O)[nH]1`, in test [1], the concentration for half-maximal inhibition (IC50) worked out at 56200 nM.

For `Cc1ccc(NC(=O)CSc2nc3ccccc3c(=O)[nH]2)cc1Cl`, the growth inhibition in test [2] was -6.21% (inactive).

As for `Cc1[nH]c(=S)[nH]c(=O)c1C`, the growth inhibition in test [2] is -6.68% (inactive). Consider `Cc1cccc(-c2oc3ccc(-c4ccc5c(c4)OCO5)cc3c2C#Cc2cncn2C)c1`, for which, in test [1], the IC90 was 3030 nM and the IC50 was found to be 2520 nM. With `Cc1c[nH]c(=S)[nH]c1=O`, the growth inhibition in test [2] is -1.72% (inactive). Regarding `Cc1cnc(SCC(=O)NC2CCCCC2)[nH]c1=O`, the growth inhibition in test [2] is -2.75% (inactive). Still for that read-out and setting: under `CCC(Sc1nc2c(c(=O)[nH]1)CCC2)C(=O)Nc1cccc(OC)c1` (stereo not drawn) stands 0.63% (inactive). Still for that read-out and setting: under `Cc1cc(=O)[nH]c(=S)[nH]1` stands -8.51% (inactive). Consider `Cc1cc(C)n2nc(N)c(N=Nc3ccccc3)c2n1`, for which, in test [1], the concentration for an effect of 90% (IC90) was 5540 nM and the half-maximal inhibitory concentration (IC50) turned out to be 3880 nM. For `CCOC(=O)CSc1nc(C)c(C)c(=O)[nH]1`, the growth inhibition in test [2] was -4.51% (inactive). As for `NC[C@H]1O[C@H](O[C@H]2[C@H](O)[C@@H](O[C@H]3O[C@H](CO)[C@@H](O)[C@H](N)[C@H]3O)[C@H](N)C[C@@H]2N)[C@H](O)[C@@H](O)[C@@H]1O`, in test [1], the IC90 was 2360 nM and the IC50 amounted to 1140 nM. As to `O=C(CSc1nc2ccccc2c(=O)[nH]1)NC1CCCCC1`, in test [1], the IC90 was 310 nM and the half-inhibitory concentration (IC50) is 160 nM. `CCOc1ccc(-c2cc(C)[n+](CCc3ccc(OC)c(OC)c3)c(-c3ccc(OCC)cc3)c2)cc1`: in test [1], the 90% effect concentration (IC90) is 860 nM and the IC50 is 480 nM. As for `Nc1cc(=O)[nH]c(SCC(=O)NC2CCCCC2)n1`, in test [2], the growth inhibition was -2.55% (inactive). Still for that read-out and setting: under `O=C(CSc1nc2ccccc2c(=O)[nH]1)N1CCOCC1` stands -3.23% (inactive); under `CCC(Sc1nc2ccccc2c(=O)[nH]1)C(=O)Nc1cccc(OC)c1` (stereo not drawn), -2.52% (inactive). For the compound `CC[N+](C)(CC)CCCCOc1ccc2c(c1)C(=O)c1cc(OCCCC[N+](C)(CC)CC)ccc1-2`, in test [1], the IC90 is 2450 nM and the half-maximal inhibitory concentration (IC50) came out at 1500 nM. Consider `O=C(CSc1ncccn1)NC1CCCCC1`, for which the growth inhibition in test [2] was -3.3% (inactive). As to `CC(C)N=c1cc2n(-c3ccc(Cl)cc3)c3ccccc3nc-2cc1Nc1ccc(Cl)cc1`, in test [1], the IC90 was 310 nM and the concentration for half-maximal inhibition (IC50) was found to be 10 nM. For `Cc1nc(SCC(=O)N(C)c2ccccc2)[nH]c(=O)c1C`, in test [2], the growth inhibition is -9.88% (inactive). The same measure, in the same setting: under `CC1CCN(C(=O)CSc2nc3ccccc3c(=O)[nH]2)CC1` stands -3.58% (inactive); under `COc1cccc(NC(=O)CSc2nc3ccccc3c(=O)[nH]2)c1`, -1.31% (inactive); under `CN(C(=O)CSc1nc2ccccc2c(=O)[nH]1)C1CCCCC1`, -0.89% (inactive). For the compound `O=C(CSc1nc2ccccc2c(=O)[nH]1)NCc1ccc(Cl)cc1`, in test [1], the 90% effect concentration (IC90) is 980 nM and the IC50 came out at 440 nM.

Regarding `Cc1nc(SCC(=O)NCCC(C)C)[nH]c(=O)c1C`, in test [1], the concentration for an effect of 90% (IC90) is 9790 nM and the IC50 was 4870 nM.

`Cc1[nH]c2ccccc2c1C(=O)COC(=O)c1ccc([N+](=O)[O-])s1` displayed an IC50 in test [1] above 50300 nM. Turning to `CO[C@H]1/C=C/O[C@@]2(C)Oc3c(C)c(O)c4c(O)c(c(C=NN5CCN(C)CC5)c(O)c4c3C2=O)NC(=O)/C(C)=C\C=C\[C@H](C)[C@H](O)[C@@H](C)[C@@H](O)[C@@H](C)[C@H](OC(C)=O)[C@@H]1C`, in test [1], the IC90 was 10 nM and the IC50 is below 10 nM.
